For two molecules, IC50 results are on record in patent US20260216190A1, “TREATMENT OF HEMATOLOGICAL MALIGNANCIES WITH INHIBITORS OF MENIN” (Kura Oncology, Inc., priority 2018, published 2026).

Broadly, the IC50 is the midpoint of a concentration-inhibition curve.

For this test, the target named is T1, menin-MLL interaction (Homo sapiens, UniProt O00255).
T1 sequence (O00255 1-610): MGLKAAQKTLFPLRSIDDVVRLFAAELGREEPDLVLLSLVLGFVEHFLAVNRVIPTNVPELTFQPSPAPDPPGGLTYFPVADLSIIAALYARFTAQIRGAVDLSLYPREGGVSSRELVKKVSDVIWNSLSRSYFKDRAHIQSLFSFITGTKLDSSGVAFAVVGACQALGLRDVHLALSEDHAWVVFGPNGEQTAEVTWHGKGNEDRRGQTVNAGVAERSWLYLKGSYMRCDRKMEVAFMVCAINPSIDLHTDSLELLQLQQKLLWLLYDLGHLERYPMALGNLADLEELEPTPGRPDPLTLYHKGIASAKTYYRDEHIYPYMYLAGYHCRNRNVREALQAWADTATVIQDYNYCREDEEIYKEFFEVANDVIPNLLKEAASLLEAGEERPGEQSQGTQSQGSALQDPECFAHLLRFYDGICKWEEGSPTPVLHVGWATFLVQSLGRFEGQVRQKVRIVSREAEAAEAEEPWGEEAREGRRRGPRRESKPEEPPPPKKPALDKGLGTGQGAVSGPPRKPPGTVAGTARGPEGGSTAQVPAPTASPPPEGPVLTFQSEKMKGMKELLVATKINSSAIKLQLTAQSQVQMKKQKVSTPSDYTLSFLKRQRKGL
The test can be described thus: Fluorescence polarization (FP) competition assay. The class given is binding. The note with it: read-out: Menin MLL 4-43 IC50.

Take `Cc1c(CN2CCC(Nc3ncnc4sc(CC(F)(F)F)cc34)CC2)ccc2c1cc(C#N)n2CC(C1CC1)N1CCN(S(C)(=O)=O)CC1` (centres unmarked) [Compound I-23]: the IC50 is < 50 nM.

As for `COCCNS(=O)(=O)N1CCN([C@@H](C)Cn2c(C#N)cc3c(C)c(CN4CCC(Nc5ncnc6sc(CC(F)(F)F)cc56)CC4)ccc32)CC1` [Compound I-142], the IC50 lay in the range of 50 to 250 nM.
